From patent US6624151B1, “Compounds selectively inhibiting gamma 9 delta 2 T lymphocytes” (Institut National de la Sante et de la Recherche Medicale, priority 1999, dated 2003)
Read-outs that look alike come from different tables or passages of the source.

Legend:
[1] = system: Tγ9δ2 lymphocytes; test: Induced cytotoxicity test, Tγ9δ2 lymphocyte clone stimulated by antigen BrHPP
[2] = system: Tγ9δ2 lymphocytes; conditions: FIG. 7 lower
Experimental: The two left graphs are obtained by stimulating the Tγ9δ2 lymphocytes as in Example 12, by adding first 9 nM of BrHPP antigen into the culture medium, then by adding increasing concentrations (on the abscissa) of the compound according to the invention, BrHPCP. The two right hand graphs are obtained by incorporating first of all 60 μM of the compound according to the invention, BrHPCP, into the culture medium in contact with the Tγ9δ2 lymphocytes, then by adding increasing concentrations (on the abscissa) of the antigen compound stimulating BrHPP. […] The upper graphs give the percentage of residual response in the cultures (induced cytotoxicity test). The lower graphs give the concentration of TNF salted out in pg/ml.

[3] = system: Tγ8δ3 lymphocytes; conditions: clone stimulated by a conventional antigen; increasing concentrations; FIG. 8
Experimental: A test of induced cytotoxicity is carried out as in Example 12, but with a clone of Tγ8δ3 lymphocyte stimulated by a conventional antigen of these lymphocytes (black circles), and in the presence of the compound according to the invention BrHPCP in increasing concentrations in the culture medium (black squares in FIG. 8).

[4] = read-out: IC50 concentration leading to the inhibition of 50% of the reference response, lymphocytes stimulated by 80 nM BrHPP, induced cytotoxicity test
[5] = read-out: bioactivity (selective inhibition of Tγ9δ2 lymphocytes), concentration of BrHPP equal to 150 μM (so in the source)

Molecule | IC50 [1, 4] | other results
3-Methyl-3-butene-1-yl-methylenediphosphonate [I PCP] | 700 µM | 
CC(O)(CBr)CCOP(=O)(O)C(F)(F)P(=O)(O)O (stereo not shown) [BrH PCF2P, 3-(Bromomethyl)-3-butanol-1-yl-difluoromethylenediphosphonate] | 150 µM | 
CC(O)(CBr)CCOP(=O)(O)CP(=O)(O)O (stereo not shown) [BrH PCP, 3-(Bromomethyl)-3-butanol-1-yl-methylenediphosphonate] | 15 µM | inhibition of stimulation by BrHPP (TNF salted out) ([2]; 9 nM BrHPP first, then increasing BrHPCP): inhibits the stimulation by BrHPP; reversibility of inhibition (TNF salted out) ([2]; 60 μM BrHPCP first, then increasing BrHPP): reversible; inhibition of Tγ8δ3 lymphocytes [3]: does not inhibit the Tγ8δ3 lymphocytes; inhibition of stimulation by BrHPP (residual response, induced cytotoxicity) ([1]; 9 nM BrHPP first, then increasing BrHPCP, FIG. 7 upper): inhibits the stimulation by BrHPP; reversibility of inhibition (induced cytotoxicity) ([1]; 60 μM BrHPCP first, then increasing BrHPP, FIG. 7 upper): reversible
CC(O)(CBr)CCOP(=O)(O)C(F)P(=O)(O)O (stereo not shown) [BrHPCHFP, 3-(bromomethyl)-3-butanol-1-yl-monofluoromethylenediphosphonate] |  | IC50 [1, 5]: 30 µM
CC1(CCOP(=O)(O)C(F)(F)P(=O)(O)O)CO1 (stereo not shown) [Epox PCF2P, 3,4-Epoxy-3-methyl-1-butyl-difluoromethylenediphosphonate] | 300 µM | 
CC1(CCOP(=O)(O)C(F)P(=O)(O)O)CO1 (stereo not shown) [Epox PCHFP, 3,4-epoxy-3-methyl-1-butyl-monofluoromethylenediphosphonate] |  | IC50 [1, 5]: 50 µM
CC1(CCOP(=O)(O)CP(=O)(O)O)CO1 (stereo not shown) [Epox PCP, 3,4-Epoxy-3-methyl-1-butyl-methylenediphosphonate] | 30 µM | IC50 ([1]; read-out: IC50 concentration, stated in text (formulation example), IC50 defined with BrHPP at 80 nM): 15 µM
C=C(C)CCOP(=O)(O)C(F)(F)P(=O)(O)O [I PCF2P, 3-Methyl-3-butene-1-yl-difluoromethylenediphosphonate] | 1000 µM | 
CC(O)(CI)CCOP(=O)(O)CP(=O)(O)O (stereo not shown) [IH PCP, 3-(Iodomethyl)-3-butanol-1-yl-methylenediphosphonate] | 15 µM | 
CC(C)(O)CCOP(=O)(O)CP(=O)(O)O [tButOH PCP, 3-Methyl-3-butanol-1-yl-methylenediphosphonate] | 1000 µM | 
